Laboratory results from patent US12054498B2, “Heteroaromatic macrocyclic ether chemotherapeutic agents” (Nuvalent, Inc., priority 2020, dated 2024).

Columns and labels:
[1] = system: TPM3-NTRK1-wt IC50 / primary target IC50 (e.g. CD74-ROS1-wt); test: TRKA selectivity in Ba/F3 cells (TRKA potency divided by primary target potency); assay type: cell-based; details: for TPM3-NTRK1-wt/CD74-ROS1-G2032R selectivity ratio: TRKA potency / CD74-ROS1-G2032R potency; for TPM3-NTRK1-wt/CD74-ROS1-wt selectivity ratio: TRKA potency / CD74-ROS1-wt potency; for TPM3-NTRK1-wt/EML4-ALK-L1196M-G1202R selectivity ratio: TRKA potency / EML4-ALK-L1196M-G1202R potency; for TPM3-NTRK1-wt/EML4-ALK-wt selectivity ratio: TRKA potency / EML4-ALK-wt potency
Method: TRKA selectivity was calculated by dividing a compound's TRKA potency by its primary target potency (e.g. TPM3-NTRK1-wt IC50/CD74-ROS1-wt IC50). Compound selectivity can be interpreted by binning ratio values: bin A for very high selectivity, ratio >30-fold; bin B for high selectivity, ratio >10-fold; bin C for moderate selectivity, ratio ≥1; and bin D for low selectivity, ratio <1. […] (nd=not determined).

[2] = biological target: T1, Ba/F3 cells EML4-ALK wt (variant 1) (Homo sapiens, UniProt Q9UM73); test: Ba/F3 cell proliferation assay, EML4-ALK wt (variant 1); assay type: cell-based; details: 72 hours, CellTiter-Glo
T1 construct: echinoderm microtubule-associated protein-like 4 (EML4) gene and the ALK tyrosine kinase domain; host or cells: Ba/F3 (RIKEN), retroviral pMSCV-puro; the other entry of the earlier key: EML4 (Q9HC35, Echinoderm microtubule-associated protein-like 4)
T1 sequence (Q9UM73 with tags, fused parts or gaps): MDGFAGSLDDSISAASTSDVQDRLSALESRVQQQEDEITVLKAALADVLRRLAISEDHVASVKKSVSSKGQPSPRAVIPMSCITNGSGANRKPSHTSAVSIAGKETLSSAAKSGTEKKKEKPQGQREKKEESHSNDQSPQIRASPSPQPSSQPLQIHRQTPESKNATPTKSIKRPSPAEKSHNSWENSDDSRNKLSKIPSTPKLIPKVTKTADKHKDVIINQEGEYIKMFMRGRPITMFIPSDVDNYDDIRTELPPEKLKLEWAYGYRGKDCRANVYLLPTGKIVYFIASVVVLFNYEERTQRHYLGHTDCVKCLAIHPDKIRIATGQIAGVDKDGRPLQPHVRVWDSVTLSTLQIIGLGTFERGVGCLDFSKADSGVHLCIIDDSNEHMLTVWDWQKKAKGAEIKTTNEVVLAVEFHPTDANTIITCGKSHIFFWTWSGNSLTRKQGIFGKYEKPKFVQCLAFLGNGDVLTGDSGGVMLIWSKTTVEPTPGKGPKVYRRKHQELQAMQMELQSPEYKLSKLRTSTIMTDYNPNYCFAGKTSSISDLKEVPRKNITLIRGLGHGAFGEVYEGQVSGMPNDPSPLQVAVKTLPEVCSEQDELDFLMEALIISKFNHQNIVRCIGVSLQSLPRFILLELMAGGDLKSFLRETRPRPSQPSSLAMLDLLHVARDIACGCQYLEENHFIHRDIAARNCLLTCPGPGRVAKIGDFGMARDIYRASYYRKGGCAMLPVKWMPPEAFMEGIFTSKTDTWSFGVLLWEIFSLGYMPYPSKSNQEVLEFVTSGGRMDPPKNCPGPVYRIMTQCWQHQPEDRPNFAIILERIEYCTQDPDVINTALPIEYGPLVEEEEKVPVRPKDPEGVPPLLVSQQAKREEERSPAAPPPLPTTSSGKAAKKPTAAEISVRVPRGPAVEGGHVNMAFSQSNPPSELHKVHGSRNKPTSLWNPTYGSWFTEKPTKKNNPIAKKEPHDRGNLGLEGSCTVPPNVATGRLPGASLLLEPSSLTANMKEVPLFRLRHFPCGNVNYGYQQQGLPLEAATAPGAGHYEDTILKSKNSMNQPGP
Description: (§1) Genes encoding CD74-ROS1 wild-type (wt), CD74-ROS1 G2032R, CD74-ROS1 S1986F, CD74-ROS1 L2026M, CD74-ROS1 D2033N, EML4-ALK wt (variant 1), EML4-ALK G1202R (variant 1), EML4-ALK L1196M/G1202R (variant 1), EML4-ALK G1202R/G1269A (variant 1), EML4-ALK G1202R/L1198F (variant 1), and TPM3-TRKA were synthesized at GeneRay, cloned into the retroviral construct pMSCV-puro (Biovector), and packaged into retroviral particles. The virus was used to infect Ba/F3 cells (RIKEN) at multiplicity of infection=1 for 1 day. Infected cells were rescued in media (RPMI-1640 with 10% fetal bovine serum and 1% streptomycin and penicillin) supplemented with mouse IL-3 (10 ng/mL) for 2 days, and stable cell lines were selected by IL-3 withdrawal and puromycin (0.8 μg/mL) for 7 days. Monoclones were selected by single-cell dilution in IL-3-free medium containing puromycin (0.8 μg/mL). Transformation of desired genes was confirmed by Sanger sequencing and western blot using the following antibodies: ROS1 (CST #3287), ALK (CST #3633), and pan-TRK (Abcam #76291).
(§2) Cell Proliferation Assay Stable cells were plated at 1,000 cells/well (40 μL) in a 384-well plate for 1 day.
(§3) Test compounds (40 nL) were then added in a 3-fold dilution series using the TECAN EVO200 liquid handler and incubated for 72 hours. Plates were equilibrated at room temperature for 15 minutes followed by addition of 40 μL CellTiter-Glo reagent (Promega).
(§4) Luminescence was measured on a plate reader. Half-maximal inhibitory concentration (IC50) was calculated from percent inhibition and inhibitor concentration using four-parameter logistic regression. […] (nd=not determined).

[3] = biological target: T2, Ba/F3 cells CD74-ROS1 G2032R (Homo sapiens, UniProt P08922, G2032R); test: Ba/F3 cell proliferation assay, CD74-ROS1 G2032R; assay type: cell-based; details: 72 hours, CellTiter-Glo
T2 construct: fusion of the C-terminus of ROS1 with the N-terminus of various partner proteins; host or cells: Ba/F3 (RIKEN), retroviral pMSCV-puro; the other entry of the earlier key: CD74 (P04233, HLA class II histocompatibility antigen gamma chain)
T2 sequence (P08922 1883-2347 G2032R limits assumed): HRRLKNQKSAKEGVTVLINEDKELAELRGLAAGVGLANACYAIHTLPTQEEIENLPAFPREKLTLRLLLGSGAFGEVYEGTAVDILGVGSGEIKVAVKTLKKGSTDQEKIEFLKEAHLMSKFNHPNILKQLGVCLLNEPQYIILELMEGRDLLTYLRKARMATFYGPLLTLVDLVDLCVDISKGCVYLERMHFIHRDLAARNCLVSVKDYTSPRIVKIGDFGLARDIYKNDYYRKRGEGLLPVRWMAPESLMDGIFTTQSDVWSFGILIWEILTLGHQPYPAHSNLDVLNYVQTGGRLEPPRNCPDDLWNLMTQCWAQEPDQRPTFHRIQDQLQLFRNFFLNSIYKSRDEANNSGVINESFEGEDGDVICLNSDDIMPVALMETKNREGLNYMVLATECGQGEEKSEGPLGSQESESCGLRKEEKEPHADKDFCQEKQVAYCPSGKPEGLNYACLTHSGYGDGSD
Method: (§5) The virus was used to infect Ba/F3 cells (RIKEN) at multiplicity of infection=1 for 1 day. Infected cells were rescued in media (RPMI-1640 with 10% fetal bovine serum and 1% streptomycin and penicillin) supplemented with mouse IL-3 (10 ng/mL) for 2 days, and stable cell lines were selected by IL-3 withdrawal and puromycin (0.8 μg/mL) for 7 days. Monoclones were selected by single-cell dilution in IL-3-free medium containing puromycin (0.8 μg/mL).
as §2, §3, §4

[4] = biological target: T3, Ba/F3 cells EML4-ALK L1196M/G1202R (variant 1) (Homo sapiens, UniProt Q9UM73, G1202R/L1196M); test: Ba/F3 cell proliferation assay, EML4-ALK L1196M/G1202R (variant 1); assay type: cell-based; details: 72 hours, CellTiter-Glo
T3 construct: echinoderm microtubule-associated protein-like 4 (EML4) gene and the ALK tyrosine kinase domain; host or cells: Ba/F3 (RIKEN), retroviral pMSCV-puro; the other entry of the earlier key: EML4 (Q9HC35, Echinoderm microtubule-associated protein-like 4)
T3 sequence (Q9UM73 with tags, fused parts or gaps L1196M/G1202R): as the sequence (Q9UM73 with tags, fused parts or gaps) above, with L635M, G641R counted along it
Description: as §1, §2, §3, §4

[5] = biological target: T4, Ba/F3 cells CD74-ROS1 wild-type (wt) (Homo sapiens, UniProt P08922); test: Ba/F3 cell proliferation assay, CD74-ROS1 wild-type; assay type: cell-based; details: 72 hours, CellTiter-Glo
T4 construct: fusion of the C-terminus of ROS1 with the N-terminus of various partner proteins; host or cells: Ba/F3 (RIKEN), retroviral pMSCV-puro; the other entry of the earlier key: CD74 (P04233, HLA class II histocompatibility antigen gamma chain)
T4 sequence (P08922 1883-2347 limits assumed): as the sequence (P08922 1883-2347 G2032R limits assumed) above, with R150G counted along it
Method: as §5, §2, §3, §4

Ba/F3 cells TPM3-TRKA = biological target: T5, Ba/F3 cells TPM3-TRKA (Homo sapiens, UniProt P04629); test: Ba/F3 cell proliferation assay, TPM3-TRKA; assay type: cell-based; details: 72 hours, CellTiter-Glo, read-out: TPM3-NTRK1-wt IC50
T5 construct: host or cells: Ba/F3 (RIKEN), retroviral pMSCV-puro; the other entry of the earlier key: TPM3 (P06753, Tropomyosin alpha-3 chain)
T5 sequence (P04629 510-796 limits assumed): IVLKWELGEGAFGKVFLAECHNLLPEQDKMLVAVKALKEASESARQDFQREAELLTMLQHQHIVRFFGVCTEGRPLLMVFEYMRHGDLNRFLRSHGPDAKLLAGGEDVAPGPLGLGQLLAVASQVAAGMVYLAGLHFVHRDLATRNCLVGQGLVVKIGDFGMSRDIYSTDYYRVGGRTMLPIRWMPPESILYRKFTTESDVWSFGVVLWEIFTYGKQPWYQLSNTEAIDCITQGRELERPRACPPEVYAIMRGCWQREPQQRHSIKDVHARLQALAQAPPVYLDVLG
Description: as §1, §2, §3, §4

TRKA-wt = biological target: T6, TRKA-wt (Homo sapiens, UniProt P04629); test: Biochemical kinase assay, TRKA-wt kinase domain; details: apparent inhibitory constant, Morrison equation; ATP 2 mM in substrate solution; read-out: TRKA-wt Ki^app
T6 construct: or TRKA-wt (1 nM, BPS Bio, 40280) kinase domains in buffer; purchased BPS Bio 40280
T6 sequence (P04629 510-781 limits assumed): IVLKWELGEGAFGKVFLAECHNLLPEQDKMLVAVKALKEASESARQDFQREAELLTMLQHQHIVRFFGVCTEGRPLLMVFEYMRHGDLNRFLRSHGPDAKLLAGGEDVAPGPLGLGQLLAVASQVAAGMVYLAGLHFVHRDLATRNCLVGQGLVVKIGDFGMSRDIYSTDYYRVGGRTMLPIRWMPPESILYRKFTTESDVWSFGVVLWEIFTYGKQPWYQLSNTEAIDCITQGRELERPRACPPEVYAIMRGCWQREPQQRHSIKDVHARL
Method: (§6) First, 250 nL of compound dissolved in DMSO (100-fold of the desired concentration) was dispensed into a 384-well plate. A 12.5 μL substrate solution containing ATP (2 mM) and fluorogenic phosphorylation substrate AQT0101 (26 μM for ALK and ROS1, AssayQuant) or AQT0104 (26 μM for TRKA, AssayQuant) in buffer (50 mM HEPES pH 7.5, 0.01% Brij-35, 0.5 mM EGTA, 10 mM MgCl2) was added and mixed thoroughly. Then, a 12.5 μL kinase solution containing ALK-wt (1.5 nM, Carna, 08-518), ALK ALK L1196M/G1202R (3 nM, SignalChem, A19-12NG), ROS1-wt (0.6 nM, Carna, 08-163), ROS1-G2032R (0.5 nM, SignalChem, R14-12BG), or TRKA-wt (1 nM, BPS Bio, 40280) kinase domains in buffer (50 nM HEPES pH 7.5, 0.01% Brij-35, 2% glycerol, 0.4 mg/mL BSA, 0.5 mM EGTA, and 10 mM MgCl2) was added and mixed thoroughly. The plate was sealed and read by SpectraMax Paradigm at λ=485 nm every 2 minutes for 120 minutes at 30° C. Initial rates of reaction (v) were calculated from the change in fluorescence intensity over time during the initial, linear portion of the reaction. Finally, apparent inhibitory constants (Ki^app) were determined from regression of v and I (inhibitor concentration) to Morrison Equation (E=enzyme concentration): […]

ROS1-G2032R = biological target: T7, ROS1-G2032R (Homo sapiens, UniProt P08922, G2032R); test: Biochemical kinase assay, ROS1-G2032R kinase domain; details: apparent inhibitory constant, Morrison equation; ATP 2 mM in substrate solution; read-out: ROS1-G2032R Ki^app
T7 construct: purchased SignalChem R14-12BG
T7 sequence (P08922 1945-2222 G2032R limits assumed): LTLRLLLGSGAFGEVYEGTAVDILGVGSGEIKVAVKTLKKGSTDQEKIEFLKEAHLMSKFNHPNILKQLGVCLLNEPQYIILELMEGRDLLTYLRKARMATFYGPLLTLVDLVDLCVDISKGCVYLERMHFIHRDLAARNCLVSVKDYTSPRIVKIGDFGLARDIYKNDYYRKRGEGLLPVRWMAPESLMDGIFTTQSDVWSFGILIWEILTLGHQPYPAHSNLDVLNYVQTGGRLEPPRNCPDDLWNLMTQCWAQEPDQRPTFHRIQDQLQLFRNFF
Method: as §6, with “Then, a 12.5 μL kinase solution containing ALK-wt (1.5 nM, Carna, 08-518), ALK ALK L1196M/G1202R (3 nM, SignalChem, A19-12NG), ROS1-wt (0.6 nM, Carna, 08-163), ROS1-G2032R (0.5 nM, SignalChem, R14-12BG), or TRKA-wt (1 nM, BPS Bio, 40280) kinase domains in buffer (50 nM HEPES pH 7.5, 0.01% Brij-35, 2% glycerol, 0.4 mg/mL BSA, 0.5 mM EGTA, and 10 mM MgCl2) was added and mixed thoroughly.” left out

ROS1-wt = biological target: T8, ROS1-wt (Homo sapiens, UniProt P08922); test: Biochemical kinase assay, ROS1-wt kinase domain; details: apparent inhibitory constant, Morrison equation; ATP 2 mM in substrate solution; read-out: ROS1-wt Ki^app
T8 construct: purchased Carna 08-163
T8 sequence (P08922 1945-2222 limits assumed): as the sequence (P08922 1945-2222 G2032R limits assumed) above, with R88G counted along it
Method: as §6, with “Then, a 12.5 μL kinase solution containing ALK-wt (1.5 nM, Carna, 08-518), ALK ALK L1196M/G1202R (3 nM, SignalChem, A19-12NG), ROS1-wt (0.6 nM, Carna, 08-163), ROS1-G2032R (0.5 nM, SignalChem, R14-12BG), or TRKA-wt (1 nM, BPS Bio, 40280) kinase domains in buffer (50 nM HEPES pH 7.5, 0.01% Brij-35, 2% glycerol, 0.4 mg/mL BSA, 0.5 mM EGTA, and 10 mM MgCl2) was added and mixed thoroughly.” left out

ALK-wt = biological target: T9, ALK-wt (Homo sapiens, UniProt Q9UM73); test: Biochemical kinase assay, ALK-wt kinase domain; details: apparent inhibitory constant, Morrison equation; ATP 2 mM in substrate solution; read-out: ALK-wt Ki^app
T9 construct: purchased Carna 08-518
T9 sequence (Q9UM73 1116-1392 limits assumed): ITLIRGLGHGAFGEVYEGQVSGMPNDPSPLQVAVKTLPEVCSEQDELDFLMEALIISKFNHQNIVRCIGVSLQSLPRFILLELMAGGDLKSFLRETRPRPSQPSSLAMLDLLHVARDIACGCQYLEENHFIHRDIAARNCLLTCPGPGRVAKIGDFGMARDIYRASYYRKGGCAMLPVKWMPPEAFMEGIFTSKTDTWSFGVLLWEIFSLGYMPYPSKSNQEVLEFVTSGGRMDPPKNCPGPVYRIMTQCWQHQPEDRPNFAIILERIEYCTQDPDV
Method: as §6

ALK L1196M/G1202R = biological target: T10, ALK L1196M/G1202R (Homo sapiens, UniProt Q9UM73, G1202R/L1196M); test: Biochemical kinase assay, ALK L1196M/G1202R kinase domain; details: apparent inhibitory constant, Morrison equation; ATP 2 mM in substrate solution; read-out: ALK-L1196M-G1202R Ki^app
T10 construct: purchased SignalChem A19-12NG
T10 sequence (Q9UM73 1116-1392 L1196M/G1202R limits assumed): as the sequence (Q9UM73 1116-1392 limits assumed) above, with L81M, G87R counted along it
Method: as §6

IC50 [2] [nM]	IC50 [3] [nM]	IC50 [4] [nM]	IC50 [5] [nM]	IC50 (Ba/F3 cells TPM3-TRKA) [nM]	Ki (TRKA-wt) [nM]	Ki (ROS1-G2032R) [nM]	Ki (ROS1-wt) [nM]	Ki (ALK-wt) [nM]	Ki (ALK L1196M/G1202R) [nM]	SMILES	TPM3-NTRK1-wt/CD74-ROS1-G2032R selectivity ratio [1]	TPM3-NTRK1-wt/CD74-ROS1-wt selectivity ratio [1]	TPM3-NTRK1-wt/EML4-ALK-L1196M-G1202R selectivity ratio [1]	TPM3-NTRK1-wt/EML4-ALK-wt selectivity ratio [1]
0.1 to 50	0.1 to 50	50 to 500	0.1 to 50	50 to 500	–	–	–	–	–	CCn1ncc2c1-c1cnc(N)c(c1)O[C@H](C)c1cc(F)ccc1-c1cc(Br)nn1C2 [Example 94, (19R)-10-bromo-3-ethyl-16-fluoro-19-methyl-20-oxa-3,4,8,9,23-pentaazapentacyclo[19.3.1.0^2,^6.0^8,^12.0^13,^18]pentacosa-1(24),2(6),4,9,11,13,15,17,21(25),22-decaen-22-amine]	A (bin A for very high selectivity, ratio >30-fold)	A (bin A for very high selectivity, ratio >30-fold)	C (bin C for moderate selectivity, ratio ≥1)	B (bin B for high selectivity, ratio >10-fold)
–	–	50 to 500	–	> 500	> 500	< 50	< 50	< 50	< 50	Cc1nn(CC2CC2)c2c1Cc1nn(C)nc1-c1ccc(F)cc1[C@@H](CO)Oc1cc-2cnc1N [Example 96, [(19S)-22-amino-3-(cyclopropylmethyl)-16-fluoro-5,10-hexaazapentacyclo[19.3.1.0^2,^6.0^8,^12.0^13,^18]pentacosa-1(24),2(6),4,8,11,13,15,17,21(25),22-decaen-19-yl]methanol]	–	–	A (bin A for very high selectivity, ratio >30-fold)	–
50 to 500	50 to 500	> 500	0.1 to 50	> 500	–	–	–	–	–	CCn1ccc2c1-c1cnc(N)c(c1)O[C@H](C)c1cc(F)ccc1-c1nn(C)nc1C2 [Example 102, (19R)-3-ethyl-16-fluoro-10,19-dimethyl-20-oxa-3,9,10,11,23-pentaazapentacyclo[19.3.1.0^2,^6.0^8,^12.0^13,^18]pentacosa-1(24),2(6),4,8,11,13,15,17,21(25),22-decaen-22-amine]	B (bin B for high selectivity, ratio >10-fold)	A (bin A for very high selectivity, ratio >30-fold)	C (bin C for moderate selectivity, ratio ≥1)	B (bin B for high selectivity, ratio >10-fold)
